According to patent US8759535B2, “Substituted fused imidazole derivatives, pharmaceutical compositions, and methods of use thereof” (High Point Pharmaceuticals, LLC, priority 2010, dated 2014):
Structures can show the parent of a compound that is named as a salt.

Tested on: HMOX1
Test: HMOX1 Protein Assay (immunostaining of HO-1 in NHLF cells, GE InCell 1000)
Type: cell-based
Details: Homo sapiens, fold change above DMSO treated cells, 16 h; for fold induction at 5 µM: 5 μM compound; for fold induction at 3 µM: 3 μM compound (asterisk)
Procedure, shortened: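 NHLF cells seeded overnight in FGM-2, then exposed to compound or DMSO vehicle for 16 h, fixed, and immunostained for HO-1 with Hoechst nuclear counterstain; imaged on InCell 1000. Values are fold change over DMSO-treated cells, generally at 5 μM (0.8% DMSO), with asterisked entries at 3 μM.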

Row | SMILES | fold induction at 5 µM | fold induction at 3 µM
1 | Cn1c(Nc2nc3ccc(OC(F)(F)F)cc3s2)nc2cc(C(=O)NCCC#N)ccc21 [Example 212, 1-Methyl-2-(6-trifluoromethoxy-benzothiazol-2-ylamino)-1H-benzoimidazole-5-carboxylic acid (2-cyano-ethyl)-amide] | 48.8 | –
2 | CN(C)[C@H]1CCN(C(=O)CNC(=O)c2ccc3c(c2)nc(Nc2nc4ccc(Cl)cc4s2)n3C)C1 [Example 418, 2-(6-Chloro-benzothiazol-2-ylamino)-1-methyl-1H-benzoimidazole-5-carboxylic acid [2-((S)-3-dimethylamino-pyrrolidin-1-yl)-2-oxo-ethyl]-amide] | 63.3 | –
3 | Cn1c(Nc2nc3ccc(OC(F)(F)F)cc3s2)nc2cc(C(=O)NCCOCC3CCCO3)ccc21 (stereo not drawn) [Example 53, 1-Methyl-2-(6-trifluoromethoxy-benzothiazol-2-ylamino)-1H-benzoimidazole-5-carboxylic acid [2-(tetrahydro-furan-2-ylmethoxy)-ethyl]-amide] | 20.1 | –
4 | CCNC(=O)c1cc2nc(Nc3nc4ccc(OC(F)(F)F)cc4s3)n(C)c2cc1F [Example 42, 6-Fluoro-1-methyl-2-(6-trifluoromethoxy-benzothiazol-2-ylamino)-1H-benzoimidazole-5-carboxylic acid ethylamide] | 34.7 | –
5 | Cn1c(Nc2nc3ccc(Cl)cc3s2)nc2cc(C(=O)NCCN3CCNCC3)ccc21 [Example 339, 2-(6-Chloro-benzothiazol-2-ylamino)-1-methyl-1H-benzoimidazole-5-carboxylic acid (2-piperazin-1-yl-ethyl)-amide hydrochloride] | – | 10.6
6 | COC(=O)c1ccc2c(c1)nc(Nc1nc3cc(OC(F)(F)F)ccc3s1)n2C [Example 99, 1-Methyl-2-(5-trifluoromethoxy-benzothiazol-2-ylamino)-1H-benzoimidazole-5-carboxylic acid methyl ester] | 8.5 | –
7 | Cn1c(Nc2nc3ccc(Cl)cc3s2)nc2cc(C(=O)NCC3CCN(CCO)CC3)ccc21 [Example 303, 2-(6-Chloro-benzothiazol-2-ylamino)-1-methyl-1H-benzoimidazole-5-carboxylic acid [1-(2-hydroxy-ethyl)-piperidin-4-ylmethyl]-amide] | 25.6 | –
8 | CNC(=O)c1ccc2c(c1)nc(Nc1nc3ccc(OC(F)(F)F)cc3s1)n2CCN [Example 173, 1-(2-Amino-ethyl)-2-(6-trifluoromethoxy-benzothiazol-2-ylamino)-1H-benzoimidazole-5-carboxylic acid methylamide hydrochloride] | 21.4 | –
9 | COCCn1c(Nc2nc3ccc(OC(F)(F)F)cc3s2)nc2cc(C(=O)O)ccc21 [Example 166, 1-(2-Methoxy-ethyl)-2-(6-trifluoromethoxy-benzothiazol-2-ylamino)-1H-benzoimidazole-5-carboxylic acid] | 22.4 | –
10 | COCCOCCNC(=O)c1ccc2c(c1)nc(Nc1nc3ccc(OC(F)(F)F)cc3s1)n2C [Example 260, 1-Methyl-2-(6-trifluoromethoxy-benzothiazol-2-ylamino)-1H-benzoimidazole-5-carboxylic acid [2-(2-methoxy-ethoxy)-ethyl]-amide] | 27.1 | –
11 | CNC(=O)c1ccc2c(c1)nc(Nc1nc3ccc(F)cc3s1)n2C [Example 124, 2-(6-Fluoro-benzothiazol-2-ylamino)-1-methyl-1H-benzimidazole-5-carboxylic acid methylamide] | 22.9 | –
12 | CCN(CC)CCCCNC(=O)c1ccc2c(c1)nc(Nc1nc3ccc(OC(F)(F)F)cc3s1)n2C [Example 360, 1-Methyl-2-(6-trifluoromethoxy-benzothiazol-2-ylamino)-1H-benzoimidazole-5-carboxylic acid (4-diethylamino-butyl)-amide] | 34.3 | –
13 | CNC(=O)c1ccc2c(c1)nc(Nc1nc3ccc(OC(F)(F)F)cc3s1)n2CCOC [Example 167, 1-(2-Methoxy-ethyl)-2-(6-trifluoromethoxy-benzothiazol-2-ylamino)-1H-benzoimidazole-5-carboxylic acid methylamide] | 24.2 | –
14 | COCCNC(=O)c1cnc2c(c1)nc(Nc1nc3ccc(OC(F)(F)F)cc3s1)n2C [Example 73, 3-Methyl-2-(6-trifluoromethoxy-benzothiazol-2-ylamino)-3H-imidazo[4,5-b]pyridine-6-carboxylic acid (2-methoxy-ethyl)-amide] | 20.6 | –
15 | COC(C)(C)CNC(=O)c1ccc2c(c1)nc(Nc1nc3ccc(Cl)cc3s1)n2C [Example 207, 2-(6-Chloro-benzothiazol-2-ylamino)-1-methyl-1H-benzoimidazole-5-carboxylic acid (2-methoxy-2-methyl-propyl)-amide] | – | 11.8
16 | Cn1c(Nc2nc3ccc(OC(F)(F)F)cc3s2)nc2cc(C(=O)NC3CCN(CC(C)(C)O)C3)ccc21 (stereo not drawn) [Example 298, 1-Methyl-2-(6-trifluoromethoxy-benzothiazol-2-ylamino)-1H-benzoimidazole-5-carboxylic acid [1-(2-hydroxy-2-methyl-propyl)-pyrrolidin-3-yl]-amide] | 21.1 | –
17 | CN(C)CCCNC(=O)c1ccc2c(c1)nc(Nc1nc3ccc(Cl)cc3s1)n2C [Example 349, 2-(6-Chloro-benzothiazol-2-ylamino)-1-methyl-1H-benzoimidazole-5-carboxylic acid (3-dimethylamino-propyl)-amide] | – | 29
18 | C[C@H](CO)OCCNC(=O)c1ccc2c(c1)nc(Nc1nc3ccc(Cl)cc3s1)n2C [Example 243, 2-(6-Chloro-benzothiazol-2-ylamino)-1-methyl-1H-benzoimidazole-5-carboxylic acid [2-((R)-2-hydroxy-1-methyl-ethoxy)-ethyl]-amide] | – | 15.2
19 | CCN(CC)c1cc2c(cc1C(=O)OC)nc(Nc1nc3ccc(OC(F)(F)F)cc3s1)n2C [Example 69, 6-Diethylamino-1-methyl-2-(6-trifluoromethoxy-benzothiazol-2-ylamino)-1H-benzoimidazole-5-carboxylic acid methyl ester] | 4.7 | –
20 | CCOCCNC(=O)c1cc2nc(Nc3nc4ccc(OC(F)(F)F)cc4s3)n(C)c2cc1F [Example 57, 6-Fluoro-1-methyl-2-(6-trifluoromethoxy-benzothiazol-2-ylamino)-1H-benzoimidazole-5-carboxylic acid (2-ethoxy-ethyl)-amide] | 32 | –
21 | Cn1c(Nc2nc3ccc(OC(F)(F)F)cc3s2)nc2cc(C(=O)NCC(=O)N3CCCCC3CO)ccc21 (stereo not drawn) [Example 439, 1-Methyl-2-(6-trifluoromethoxy-benzothiazol-2-ylamino)-1H-benzoimidazole-5-carboxylic acid [2-(2-hydroxymethyl-piperidin-1-yl)-2-oxo-ethyl]-amide] | 84.2 | –
22 | CN(C(=O)CNC(=O)c1ccc2c(c1)nc(Nc1nc3ccc(Cl)cc3s1)n2C)C1CCNC1 (stereo not drawn) [Example 394, 2-(6-Chloro-benzothiazol-2-ylamino)-1-methyl-1H-benzoimidazole-5-carboxylic acid [(methyl-pyrrolidin-3-yl-carbamoyl)-methyl]-amide hydrochloride] | 37.6 | –
23 | Cn1c(Nc2nc3ccc(Cl)cc3s2)nc2cc(C(=O)NCCCCCO)ccc21 [Example 227, 2-(6-Chloro-benzothiazol-2-ylamino)-1-methyl-1H-benzoimidazole-5-carboxylic acid (5-hydroxy-pentyl)-amide] | – | 14
24 | CCn1c(Nc2nc3ccc(OC(F)(F)F)cc3s2)nc2cc(C(=O)NCC(=O)N3CCN(C)CC3)ccc21 [Example 190, 1-Ethyl-2-(6-trifluoromethoxy-benzothiazol-2-ylamino)-1H-benzoimidazole-5-carboxylic acid [2-(4-methyl-piperazin-1-yl)-2-oxo-ethyl]-amide] | 23.4 | –
25 | Cn1c(Nc2nc3ccc(Cl)cc3s2)nc2cc(C(=O)NCC(=O)N3CC[C@@H](O)C3)ccc21 [Example 400, 2-(6-Chloro-benzothiazol-2-ylamino)-1-methyl-1H-benzoimidazole-5-carboxylic acid [2-((R)-3-hydroxy-pyrrolidin-1-yl)-2-oxo-ethyl]-amide] | – | 15
26 | COc1ccc(CNC(=O)c2ccc3c(c2)nc(Nc2nc4ccc(OC(F)(F)F)cc4s2)n3C)cc1O [Example 231, 1-Methyl-2-(6-trifluoromethoxy-benzothiazol-2-ylamino)-1H-benzoimidazole-5-carboxylic acid 3-hydroxy-4-methoxy-benzylamide] | 30.2 | –
27 | COCCOCCNC(=O)c1ccc2c(c1)nc(Nc1nc3ccc(C(F)(F)F)cc3s1)n2C [Example 262, 1-Methyl-2-(6-trifluoromethyl-benzothiazol-2-ylamino)-1H-benzoimidazole-5-carboxylic acid [2-(2-methoxy-ethoxy)-ethyl]-amide] | – | 40
28 | Cn1c(Nc2nc3ccc(Cl)cc3s2)nc2cc(C(=O)N[C@H]3CCCNC3)ccc21 [Example 310, 2-(6-Chloro-benzothiazol-2-ylamino)-1-methyl-1H-benzoimidazole-5-carboxylic acid (S)-piperidin-3-ylamide hydrochloride] | 24.6 | –
29 | Cn1c(Nc2nc3ccc(OC(F)(F)F)cc3s2)nc2cc(C(=O)NCCOCCNS(C)(=O)=O)ccc21 [Example 276, 1-Methyl-2-(6-trifluoromethoxy-benzothiazol-2-ylamino)-1H-benzoimidazole-5-carboxylic acid [2-(2-methanesulfonylamino-ethoxy)-ethyl]-amide] | 61.2 | –
30 | Cn1c(Nc2nc3ccc(Cl)cc3s2)nc2cc(C(=O)N[C@H]3CCN(CCO)C3)ccc21 [Example 293, 2-(6-Chloro-benzothiazol-2-ylamino)-1-methyl-1H-benzoimidazole-5-carboxylic acid [(S)-1-(2-hydroxy-ethyl)-pyrrolidin-3-yl]amide] | 29.4 | –
